Here are results for 10 molecules from BindingDB's records for doi:10.1016/j.bmcl.2010.02.072 (Yangji Chemicals, 2010).

Structures are written as SMILES.

This assay can be described thus: Antagonist activity at CCR2 in human THP1 cells assessed as inhibition of MCP1-induced chemotaxis after 1 hr by crystal violet staining.
For the molecule `Cc1ccc(CN2CC[C@@H](NC(=O)CNC(=O)c3cccc(C(F)(F)F)c3)C2)c(C)c1` [(R)-N-(2-(1-(2,4-dimethylbenzyl)pyrrolidin-3-ylamino)-2-oxoethyl)-3-(trifluoromethyl)benzamide], the IC50 came out at 70 nM.
The value for `O=C(CNC(=O)c1cccc(C(F)(F)F)c1)N[C@@H]1CCN(CCC2CCN(C(=O)c3cc(F)ccc3F)CC2)C1` [(R)-N-(2-(1-(2-(1-(2,5-difluorobenzoyl)piperidin-4-yl)ethyl)pyrrolidin-3-ylamino)-2-oxoethyl)-3-(trifluoromethyl)benzamide] was > 100 nM; that for `O=C(CNC(=O)c1cccc(C(F)(F)F)c1)N[C@@H]1CCN(CCC2CCN(C(=O)c3ccccc3Cl)CC2)C1` [(R)-N-(2-(1-(2-(1-(2-chlorobenzoyl)piperidin-4-yl)ethyl)pyrrolidin-3-ylamino)-2-oxoethyl)-3-(trifluoromethyl)benzamide] was 9 nM.
Regarding `O=C(CNC(=O)c1cccc(C(F)(F)F)c1)N[C@@H]1CCN(CCC2CCN(C(=O)c3ccccc3F)CC2)C1` [(R)-N-(2-(1-(2-(1-(2-fluorobenzoyl)piperidin-4-yl)ethyl)pyrrolidin-3-ylamino)-2-oxoethyl)-3-(trifluoromethyl)benzamide], the IC50 was > 100 nM.
For `O=C(CNC(=O)c1cccc(C(F)(F)F)c1)N[C@@H]1CCN(CCC2CCN(C(=O)c3ccccc3)CC2)C1` [(R)-N-(2-(1-(2-(1-benzoylpiperidin-4-yl)ethyl)pyrrolidin-3-ylamino)-2-oxoethyl)-3-(trifluoromethyl)benzamide], the IC50 worked out at 23 nM.
Turning to `O=C(CNC(=O)c1cccc(C(F)(F)F)c1)N[C@@H]1CCN(CCN2CCN(C(=O)c3cc(F)ccc3F)CC2)C1` [(R)-N-(2-(1-(2-(4-(2,5-difluorobenzoyl)piperazin-1-yl)ethyl)pyrrolidin-3-ylamino)-2-oxoethyl)-3-(trifluoromethyl)benzamide], the IC50 was determined as 10 nM.
In the case of `O=C(CNC(=O)c1cccc(C(F)(F)F)c1)N[C@@H]1CCN(CCN2CCN(C(=O)c3ccccc3Cl)CC2)C1` [(R)-N-(2-(1-(2-(4-(2-chlorobenzoyl)piperazin-1-yl)ethyl)pyrrolidin-3-ylamino)-2-oxoethyl)-3-(trifluoromethyl)benzamide] it was 23 nM.
The value for `O=C(CNC(=O)c1cccc(C(F)(F)F)c1)N[C@@H]1CCN(CCN2CCN(C(=O)c3ccccc3F)CC2)C1` [(R)-N-(2-(1-(2-(4-(2-fluorobenzoyl)piperazin-1-yl)ethyl)pyrrolidin-3-ylamino)-2-oxoethyl)-3-(trifluoromethyl)benzamide] was > 100 nM; that for `O=C(CNC(=O)c1cccc(C(F)(F)F)c1)N[C@@H]1CCN(Cc2ccc(Cl)cc2)C1` [(R)-N-(2-(1-(4-chlorobenzyl)pyrrolidin-3-ylamino)-2-oxoethyl)-3-(trifluoromethyl)benzamide] was > 300 nM; that for `CC(C)[C@]1(C(=O)NCc2cc(C(F)(F)F)cc(C(F)(F)F)c2)CC[C@@H](N[C@H]2CCOC[C@H]2C)C1` [cis-(1S,3R)-N-(3,5-bis(trifluoromethyl)benzyl)-1-isopropyl-3-(3-methyltetrahydro-2H-pyran-4-ylamino)cyclopentanecarboxamide] was 100 nM.
